Assay results from article PMC8962514 (ACS infectious diseases, 2022).
Values after ≈ are worked out from the molar mass of the structure shown. Non-standard residues stand in square brackets, D forms with d. Residues, ends and D or L forms follow the SMILES beside them. Nspe = C[C@H](NCC(=O)O)c1ccccc1; NDecylGly = CCCCCCCCCCNCC(=O)O; Nlys = NCCCCNCC(=O)O

What was measured:
[1] = test system: S. aureus pre-formed biofilm; assay: Minimal biofilm eradication; type: cell-based, Staphylococcus aureus; conditions: 12.5 μg/ml peptoid (Figure 4 legend; 6.25 μg/mL), relative to PBS, n = 3
[2] = test system: K. pneumoniae biofilm; assay: Minimal biofilm inhibition; type: cell-based, Klebsiella pneumoniae; conditions: 1.56 μg/mL peptoid, relative to PBS, n = 3
[3] = test system: S. aureus USA300 LAC; assay: Subcutaneous abscess infection model; type: in vivo, mice; conditions: 1.25 mg/kg for TM8, vs PBS
[4] = test system: E. cloacae 218R1; type: cell-based, Enterobacter cloacae; conditions: 218R1, 16 h
[5] = test system: P. aeruginosa LESB58; type: cell-based, Pseudomonas aeruginosa; conditions: LESB58, 16 h
[6] = test system: S. aureus biofilm; assay: Minimal biofilm inhibition; type: cell-based, Staphylococcus aureus; conditions: 1.56 μg/mL peptoid, relative to PBS, n = 3
[7] = Self-assembly in aqueous solution by small angle X-ray scattering; type: physicochemical
[8] = test system: K. pneumoniae pre-formed biofilm; assay: Minimal biofilm eradication; type: cell-based, Klebsiella pneumoniae; conditions: 12.5 μg/ml peptoid (Figure 4 legend; 6.25 μg/mL), relative to PBS, n = 3
[9] = In vivo toxicity / maximum tolerated dose; conditions: mice, Table S3
[10] = test system: E. cloacae biofilm; assay: Minimal biofilm inhibition; type: cell-based, Enterobacter cloacae; conditions: 1.56 μg/mL peptoid, relative to PBS, n = 3
[11] = test system: P. aeruginosa LESB58 biofilm; assay: Biofilm eradication under host-mimicking conditions, monomicrobial; type: cell-based, Pseudomonas aeruginosa; conditions: 31.25 μg/mL peptoid, DMEM-FBS-G, n = 3
[12] = test system: S. aureus USA300 LAC; type: cell-based, Staphylococcus aureus; conditions: USA300, 16 h
[13] = test system: E. faecium #2-1; type: cell-based, Enterococcus faecium; conditions: #2-1, 16 h
[14] = test system: P. aeruginosa biofilm; assay: Minimal biofilm inhibition; type: cell-based, Pseudomonas aeruginosa; conditions: 1.56 μg/mL peptoid, relative to PBS, n = 3
[15] = test system: A. baumannii AB5075; type: cell-based, Acinetobacter baumannii; conditions: AB5075, 16 h
[16] = test system: A. baumannii pre-formed biofilm; assay: Minimal biofilm eradication; type: cell-based, Acinetobacter baumannii; conditions: 6.25 μg/ml peptoid, relative to PBS, n = 3
[17] = test system: K. pneumoniae KPLN649; type: cell-based, Klebsiella pneumoniae; conditions: KPLN649, 16 h

SMILES: CCCCCCCCCCNCC(=O)N(CCCCN)CC(=O)N(CC(=O)N(CC(=O)N(CCCCN)CC(=O)N(CC(=O)N(CC(N)=O)[C@@H](C)c1ccccc1)[C@@H](C)c1ccccc1)[C@@H](C)c1ccccc1)[C@@H](C)c1ccccc1 [TM8] (H-[NDecylGly][Nlys][Nspe][Nspe][Nlys][Nspe][Nspe]-NH2)
- Reduction of biomass of pre-formed biofilm (CV staining) [1]: impacted
- Inhibition of biofilm formation (CV staining) [2]: inhibited biofilm formation
- Effect on S. aureus abscess size and bacterial burden, in words [3]: insignificantly reduced
- Minimum inhibitory concentration (MIC) [4]: 12.5 µg/mL (≈ 11.2 µM)
- Minimum inhibitory concentration (MIC) [5]: 6.25 µg/mL (≈ 5.6 µM)
- Inhibition of biofilm formation (CV staining) [6]: inhibited biofilm formation
- Eccentricity (ε) of ellipsoidal micelles ([7]; SAXS model analysis): 1.9
- Rcore of ellipsoidal micelles ([7]; SAXS model analysis): 10 Å
- dR (shell) of ellipsoidal micelles ([7]; SAXS model analysis): 9 Å
- Aggregation number of ellipsoidal micellar assemblies ([7]; SAXS, on average): ~103 peptoids
- Fraction of larger aggregates ([7]; SAXS, upturn at low Q, 4mM, 20°C): ~ 0.08%
- Self-assembled structure (SAXS best fit) ([7]; aqueous solution, peptoids 4mM, 20°C, theoretical model analysis): ellipsoidal micellar assemblies
- Reduction of biomass of pre-formed biofilm (CV staining) [8]: impacted
- Maximum tolerated dose [9]: 1.25 mg/kg
- Inhibition of biofilm formation (CV staining) [10]: inhibited biofilm formation
- Reduction of P. aeruginosa bacterial numbers in biofilm (CFU) [11]: 1,000 fold
- Minimum inhibitory concentration (MIC) [12]: 3.13 µg/mL (≈ 2.81 µM)
- Minimum inhibitory concentration (MIC) [13]: 0.78 µg/mL (≈ 0.699 µM)
- Inhibition of biofilm formation (CV staining) [14]: inhibited biofilm formation
- Minimum inhibitory concentration (MIC) [15]: 3.13 µg/mL (≈ 2.81 µM)
- Reduction of biofilm metabolic activity (TTC reduction) [16]: metabolic activity was reduced
- Minimum inhibitory concentration (MIC) [17]: 12.5 µg/mL (≈ 11.2 µM)
